Assay: Differential scanning calorimetry (DSC) of niacinamide and its 2% blends with silicones
Assay type: physicochemical
Experimental: To further understand the difference in interaction between ionically modified silicone and control/Silsoft silicone gel, differential scanning calorimetry (DSC) studies were carried out on pure active-niacinamide, and its blends with silsoft silicone and ionically modified silicone. 2% Niacinamide blends were prepared by thoroughly mixing Niacinamide with above silicones using spatula followed by high-speed mixing in Flack-Tek for 5 minutes. The free Niacinamide and Niacinamide loaded Silsoft silicone gel and ionically modified silicone were subjected to a heating and cooling cycle under nitrogen atmosphere. The DSC thermograms are show in FIG. 2.

## NC(=O)c1cccnc1 [Niacinamide, niacinamide]
Nitrogen atmosphere
  ΔH (heat change associated with the melting of Niacinamide): 218.7 J/g
Relative to pure niacinamide
  % Crystallinity (crystalline Niacinamide): 100%
